Values quoted from earlier work, collected in patent US20230157281A1, “COMPOSITIONS AND METHODS FOR REPELLING ANIMALS FROM AN OBJECT” (Texas Tech University System, priority 2020, published 2023).
Where two headings read alike, the source gives them in different places.

Assays:
cats [1] = settings: preliminary data from another study; dosage not detailed
cats [2] = system: cats

SMILES | interest shown by male and female cats (cats [1]) | use of litter box (cats [2]; added to the litter at 50 μg/kg of litter) | use of litter box (cats [2]; substance used in litter, result in words) | use of litter box (cats [2]; substance used in litter, result in words, listed as I-felinine)
CC(C)(S)CCO [MMB, 3-Mercapto-3-Methyl Butanol] | showed interests | did not alter the use of litterbox | did not increase the use of litter box | –
CC(C)(CCO)SC[C@H](N)C(=O)O [felinine] | – | – | – | attract cats to eliminate in the litter box
